Data taken from US9155790B2, “Methods and compositions for modulating ocular damage” (University of Lousiville Research Foundation, Inc., priority 2010, dated 2015).
Entries after “also recorded” stand apart in the source; their conditions may differ.

Columns and labels:
C57BL/6 mice [1] = assay: Proliferative vitreoretinopathy (PVR) model, surgically induced retinal detachment in mice; type: in vivo; details: 500 μg in 5 μl subtenon on days 0 and 5; light microscopy day 10
Experimental: The effect of MIF inhibition on EMT was further tested in vivo using an animal model of PVR. Six (6) adult C57BL/6 mice were anesthetized with pentobarbital sodium (70 mg/kg i.p.) and a linear incision was made in the cornea. The lens was removed and a tear was created in the peripheral retina using a 32G needle. The corneal incision was then sutured with 10-0 nylon.
The experimental group received 500 μg/in 5 μl of a MIF inhibitor (4-iodo-6-(2-fluorophenyl)pyrimidine; Compound 1) in the posterior subtenon space on Days 0 and 5, whereas control animals received the solvent. Animals were sacrificed on Day 10 and light microscopy was used to assess the presence and extent of PVR. MIF^−/− animals (n=3) were also used as control.
In order to test the safety and efficacy of MIF neutralization in vivo, the model disclosed in Saika et al., 2004 was employed.
Briefly, retinal detachment was created in three C57BL6 mice. Animals underwent a lensectomy/vitrectomy procedure under ketamine/xylazine anesthesia. These procedures were done through a central slit corneal incision. After the completion of the procedure, a tear was created in the peripheral retina under the microscope and the sensory retina was detached. Next, the cornea was closed with a 10-0 nylon suture and each animal was returned to its cage. […]

C57BL/6 mice [2] = assay: Sodium iodate chemical RPE debridement model of geographic atrophy; type: in vivo
Experimental: (§1) Another group of animals received MIF-inhibitor 6 days after laser treatment to determine the effect of MIF-neutralization on established CNV. RPE loss was also mimicked in twelve C57BL/6 mice by patchy debridement of RPE using intraperitoneal sodium iodate injection (25 mg/kg). Seven days later, animals received the subtenon MIF inhibitor and RPE resurfacing was determined on day 21 by morphometric image analysis. In all experiments, MIF^−/− animals and wild type animals that received the solvent (DMSO/Corn oil) and/or PBS were used as controls.
Immunostaining for RPE65, vimentin, E-cadherin, and N-cadherin was used to identify and characterize RPE differentiation.
Sodium iodate was employed for chemical debridement of RPE to mimic geographic atrophy. Mice received NalO3 (25 mg/kg) intraperitoneally followed by subtenon injection of Compound 1 (500 μg in 5 μL) on day 7. Mice were sacrificed on Day 21 and the surface coverage by RPE cells was determined.

C57BL/6 mice [3] = assay: Laser-induced subretinal choroidal neovascularization (CNV) in mice; type: in vivo; details: for CNV yield (percent of the spots with CNV): read 10 days after laser
From the text: In order to test the efficacy of MIF inhibitors to prevent subretinal or intraretinal neovascularization, subretinal choroidal neovascularization (CNV) was induced in C57BL/6 mice (n=3; 6 eyes/per experimental group) using a double-frequency YAG laser (532 nm). Laser parameters were 600 mW of power, 0.1 sec duration, and a spot size of 50 micrometers. Approximately 8-12 spots per eye were placed. One group of animals received 500 micrograms of 4-(2-fluorophenyl)-6-iodopyrimidine (Compound 1) into the posterior subtenon space through a 32-G needle 24 hours before laser application. Compound 1 was dissolved in 1:1 mixture of DMSO and corn oil solvent. The injection volume was 5 microliters.
Another group of animals received the drug six days after the laser photocoagulation when subretinal neovascularization is at its maximum growth. This scenario exemplified the use of MIF inhibitors (including, but not limited to Compound 1) in the treatment of active wet age-related macular degeneration (AMD). The two […] controls received either PBS or DMSO:corn oil mixture into the subTenon space. MIF^−/− animals (i.e., mice with a homozygous knock out of the MIF gene) were also taken as the negative control.
Ten days after the laser photocoagulation animals were perfused with high molecular weight dextran (2 megadalton)-conjugated fluorescein under deep anesthesia and then sacrificed. Choroidal neovascularization (CNV) yield (=percent of the spots with CNV) was determined under a fluorescent microscope.
The effect of MIF neutralization on retinal pigment epithelial (RPE) differentiation and wound healing properties in animal models of chemical RPE debridement and laser-induced choroidal neovascularization (CNV) was tested. CNV was induced in C57BL/6 mice (n=18) using a double-frequency YAG laser (532 nm; 600 mW; 0.1 sec; 50 μm; 8-12 spots/eye). The experimental group (n=6) received 500 μg/in 5 μl of a MIF inhibitor (4-iodo-6-(2-fluorophenyl)pyrimidine; Compound 1) in the posterior subtenon space 24 hours before laser application. Ten (10) days later, animals were sacrificed and induced CNV (i.e., yield) was determined.
as §1

Brown Norway rats = assay: PVR / retinal detachment model in Brown Norway rats; type: in vivo
Experimental: Briefly, retinal detachment was created in three C57BL6 mice. Animals underwent a lensectomy/vitrectomy procedure under ketamine/xylazine anesthesia. These procedures were done through a central slit corneal incision. After the completion of the procedure, a tear was created in the peripheral retina under the microscope and the sensory retina was detached. Next, the cornea was closed with a 10-0 nylon suture and each animal was returned to its cage. The experimental group received 500 μg/in 5 μl of the MIF inhibitor 4-(2-fluorophenyl)-6-iodopyrimidine (Compound 1) in the posterior subtenon space on days 0 and 5, whereas control animals received the solvent (i.e., a 1:1 mixture of DMSO and corn oil). Animals were sacrificed on day 10 and light microscopy was used to assess the presence and extent of PVR. MIF^−/− knockout animals (n=3) were also used as a control.
Similar experiments were also repeated using Brown Norway rats. […] However, in control animals (FIG. 5 I) numerous RPE cells became migratory in the vitreous and started to form epiretinal membranes

primary human RPE cells = assay: EMT of cultured primary human RPE cells (morphology and qPCR); type: cell-based
Experimental: To determine whether MIF inhibition can prevent the formation proliferative vitreoretinopathy (PVR) by inhibiting epithelio-mesenchymal transformation (EMT) of RPE, primary human RPE cells from two young donors were plated on tissue-culture plastic and maintained in DMEM H16 supplemented with 10% FBS and a MIF inhibitor (4-IPP; 25-50 μM) for 3 weeks. Control cells were exposed only to the solvent (DMSO/Corn oil).
Morphology and qPCR for microphthalmia transcription factor (MITF), plasminogen activator inhibitor type-1 (PAI-1), vimentin, and N-cadherin were used to assay for the presence of EMT.
Human RPE cells were isolated freshly (<24 hours) from human donor eyes. Harvested RPE cells were cultured on tissue-culture plates. 25 μM of 4-IPP, a small molecule antagonist of MIF, was added to the culture medium every other day. Untreated wells were taken as control. 21 days later, cells were photographed and RNA was isolated for qPCR analyses.

[4] = 25 μM every other day, 21 days, qPCR
[5] = 25-50 μM for 3 weeks, qPCR vs control

Fc1ccccc1-c1cc(I)ncn1 [Compound 1, 4-(2-fluorophenyl)-6-iodopyrimidine]
RPE cell layering / morphology in the subretinal space (C57BL/6 mice [1]): remained as a monolayer; also recorded: maintained an epitheloid monolayer in the subretinal space
formation / contraction of peri-retinal membranes (PVR) (C57BL/6 mice [1]): significantly inhibited the formation of peri-retinal membranes; also recorded: No physical distortion related with the contraction of periretinal membranes was noted
differentiation of proliferating RPE cells (immunostaining) (C57BL/6 mice [2]; MIF-neutralized animals, RPE65, vimentin, E-cadherin, N-cadherin staining): maintained differentiated cuboidal morphology and expressed E-cadherin and RPE-65
surface coverage by RPE cells vs vehicle (FIG. 7) (C57BL/6 mice [2]; NaIO3 25 mg/kg i.p., 500 μg in 5 μL subtenon on day 7, day 21): statistically significant greater surface coverage
surface coverage by RPE cells (C57BL/6 mice [2]; sodium iodate 25 mg/kg i.p., subtenon MIF inhibitor on day 7, morphometric image analysis on day 21): 93.8±6.3%
RPE resurfacing of the denuded Bruch's membrane (FIGS. 8, 9) (C57BL/6 mice [2]; three weeks after partial destruction of RPE cells, vs vehicle): proliferated at a higher rate, resurfaced the Bruch's membrane, and formed an epithelial monolayer; also recorded: better resurfacing of the denuded Bruch's membrane with RPE cells; also recorded: RPE cells established a monolayer in many places; also recorded: proliferated at a higher rate; resurfaced the Bruch's membrane and formed an epithelial monolayer
RPE cell proliferation (PCNA staining) (C57BL/6 mice [2]; vs vehicle control mice, FIG. 10A): increased cell proliferation; also recorded: higher proliferation of the RPE cells
apoptotic cell death (TUNEL staining) (C57BL/6 mice [2]; vs vehicle control mice, FIG. 10B): decreased apoptotic cell death
CNV yield (percent of the spots with CNV) (C57BL/6 mice [3]; 500 μg in 5 μl posterior subtenon, 24 hours before laser (pre-laser)): 10.7%
CNV yield (percent of the spots with CNV) (C57BL/6 mice [3]; 500 μg subtenon 6 days after laser (post-laser, established CNV)): 12.9%
RPE growth over the laser spot (C57BL/6 mice [3]; histology / fluorescence microscopy of laser spots): RPE cells proliferated to cover the spot; also recorded: RPE proliferated over the laser spot and sealed it off from neovascularization; also recorded: proliferate over the laser spot and seal it off from neovascularization
occurrence of CNV (FIG. 1) (C57BL/6 mice [3]; post-laser application (5th bar)): significantly suppressed the occurrence of CNV
occurrence of CNV (FIG. 1) (C57BL/6 mice [3]; pre-laser application (4th bar)): significantly suppressed the occurrence of CNV
RPE morphology and invasion of subretinal / intravitreal space (Brown Norway rats; Brown Norway rats, FIG. 5H, vs control): maintained their epitheloid morphology and did not invade the subretinal and/or intravitreal space
preservation of photoreceptor cells in the detached retina (Brown Norway rats; FIG. 6A vs vehicle control FIG. 6B): better preservation of the photoreceptor cells in the detached retina; also recorded: better preserved
outer nuclear layer thickness (Brown Norway rats; detached retina, FIG. 6A vs controls): thicker outer nuclear layer

Ic1cc(-c2ccccc2)ncn1 [Compound 4-IPP, 4-iodo-6-phenylpyrimidine]
MITF mRNA level, control lower than inhibitor-treated cells (primary human RPE cells; [4]): 1.6 fold
N-cadherin mRNA level, control higher than inhibitor-treated cells (primary human RPE cells; [4]): 43.2 fold
PAI-1 mRNA level, control higher than inhibitor-treated cells (primary human RPE cells; [4]): 19.7 fold
vimentin mRNA level, control higher than inhibitor-treated cells (primary human RPE cells; [4]): 8.5 fold
cell number and morphology of cultured human RPE cells (FIG. 4A) (primary human RPE cells; 25 μM every other day, 21 days, vs control wells): significantly fewer in number, were uniformly pigmented, retained a classical cuboidal epithelial morphology
increase in MITF mRNA level (primary human RPE cells; [5]): 1.6 ×
reduction of N-cadherin mRNA level (primary human RPE cells; [5]): 43.2 ×
reduction of PAI-1 mRNA level (primary human RPE cells; [5]): 19.7 ×
reduction of vimentin mRNA level (primary human RPE cells; [5]): 8.5 ×
cell number and morphology of cultured human RPE cells (primary human RPE cells; 25-50 μM for 3 weeks, vs solvent control): significantly fewer in number but maintained their typical cuboidal epithelial morphology
